The text below walks through data of PubChem BioAssay (NCI).

Each structure is given as a SMILES string.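 Exposure lasted 48 hours, with cells grown in 96-well plates and compounds tested at five concentrations. GI50: concentration for 50% inhibition of growth. The concentration for full growth arrest is given as TGI.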

Some test systems named below: 786-0 renal; A549 NSCLC; K-562 leukemia; NCI-H226 lung; OVCAR-4 ovarian; OVCAR-8 ovarian; SNB-19 CNS; TK-10 renal; UACC-257 melanoma.
Holding throughout (assay): NCI-60 cell line screen, 48 h

Regarding `c1ccc(CNCCN(CCNCc2ccccn2)Cc2ccc3ccccc3c2)nc1`, the GI50 is 2.34 µM in the assay with 786-0 renal; 2.33 µM with A549 NSCLC; 2.97 µM in the assay with K-562 leukemia; 1.77 µM in the assay with NCI-H226 lung; 1.88 µM in the assay on OVCAR-4 ovarian; 2.27 µM with OVCAR-8 ovarian. Also, the figures for the GI50 in the assay with SNB-19 CNS, with TK-10 renal and in the assay with UACC-257 melanoma were 2.68 µM, 1.36 µM and 2.16 µM, respectively. The TGI in the assay with 786-0 renal came to 8.15 µM; in the assay on A549 NSCLC it was 5.38 µM; with K-562 leukemia it was 8.73 µM; in the assay on NCI-H226 lung, 3.53 µM; with OVCAR-4 ovarian it was 5.3 µM; in the assay on OVCAR-8 ovarian it was 6.29 µM. For the same molecule, the TGI in the assay on SNB-19 CNS was determined as 8.95 µM; in the assay on TK-10 renal, 6.58 µM; in the assay on UACC-257 melanoma, 4.69 µM.
Turning to `COc1ccc(OC)c(/C=N/N=C(\N)NO)c1`, the TGI with 786-0 renal, in the assay on A549 NSCLC, in the assay on K-562 leukemia, in the assay on NCI-H226 lung, in the assay on OVCAR-4 ovarian and in the assay with OVCAR-8 ovarian was greater than 100 µM in each case. Moreover, the TGI in the assay with SNB-19 CNS is greater than 100 µM; with TK-10 renal it was 56 µM; with UACC-257 melanoma it was greater than 100 µM.
With `CC(=O)[CH-]C(=O)c1ccccc1.CC(=O)[CH-]C(=O)c1ccccc1.O=S(=O)([O-])c1cc([O-])c2c([O-])cc(S(=O)(=O)[O-])cc2c1.[Na+].[Zr+4]`, the GI50 with 786-0 renal is 70.8 µM; with A549 NSCLC, greater than 100 µM; in the assay with K-562 leukemia, greater than 100 µM; in the assay with NCI-H226 lung it was 30.4 µM; in the assay on OVCAR-4 ovarian, greater than 100 µM; in the assay on OVCAR-8 ovarian, greater than 100 µM. The GI50 was 35.3 µM with SNB-19 CNS and 87.2 µM with UACC-257 melanoma. Also, the TGI is greater than 100 µM in the assay on 786-0 renal; greater than 100 µM in the assay on A549 NSCLC; greater than 100 µM in the assay on K-562 leukemia; 90.9 µM with NCI-H226 lung; greater than 100 µM in the assay with OVCAR-4 ovarian; greater than 100 µM in the assay with OVCAR-8 ovarian. Further, the TGI in the assay on SNB-19 CNS and in the assay with UACC-257 melanoma was greater than 100 µM in each case.
`Cc1nc2c(o1)C(=Nc1ccccc1)c1nc(C)oc1C2=Nc1ccccc1`: the TGI in the assay with 786-0 renal is 34.2 µM; with A549 NSCLC it was 54.1 µM; with K-562 leukemia, greater than 100 µM; in the assay on NCI-H226 lung it was 53.6 µM; in the assay on OVCAR-8 ovarian it was 34.3 µM; in the assay with SNB-19 CNS, 42.5 µM. The results for the TGI with TK-10 renal and in the assay with UACC-257 melanoma were greater than 100 µM and 97.6 µM, respectively.
In the case of `COC1OC2COC(C)(C)OC2C(OC(C)=O)C1NC(=O)N(CCCl)N=O` (centres undefined), the TGI in the assay on 786-0 renal, with A549 NSCLC, in the assay with K-562 leukemia, with NCI-H226 lung, with OVCAR-4 ovarian and in the assay on OVCAR-8 ovarian was greater than 100 µM in each case. For the same molecule, the TGI in the assay on SNB-19 CNS, in the assay on TK-10 renal and in the assay with UACC-257 melanoma was greater than 100 µM each time.
In the case of `Cc1cc(=O)n(-c2cc3cccccc-3n2)[nH]1`, the TGI in the assay with 786-0 renal is 18 µM; with A549 NSCLC, greater than 100 µM; with K-562 leukemia, 15.5 µM; with NCI-H226 lung, 44.4 µM; in the assay on SNB-19 CNS, greater than 100 µM; in the assay with TK-10 renal it was greater than 100 µM. Moreover, the TGI in the assay with UACC-257 melanoma was determined as 48.3 µM.
`CC(=O)[C@H]1CCC2[C@@H]3CC=C4C[C@@H]([O-])CC[C@]4(C)C3CC[C@@]21C.CC(=O)[C@H]1CCC2[C@@H]3CC=C4C[C@@H]([O-])CC[C@]4(C)C3CC[C@@]21C.CC(=O)[CH-]C(=O)c1ccccc1.CC(=O)[CH-]C(=O)c1ccccc1.Cl.[Ti+4]` (some centres undefined): the GI50 was 6.03 µM in the assay with 786-0 renal; 23.6 µM with A549 NSCLC; 12.7 µM with K-562 leukemia; 16.1 µM in the assay with NCI-H226 lung; 62 µM with OVCAR-4 ovarian; 19.8 µM in the assay with OVCAR-8 ovarian. For the same molecule, the GI50 in the assay with TK-10 renal is 40.7 µM; in the assay on UACC-257 melanoma it was 16.2 µM. The TGI is 17.9 µM in the assay with 786-0 renal; greater than 100 µM in the assay on A549 NSCLC; greater than 100 µM with K-562 leukemia; 44.9 µM in the assay with NCI-H226 lung; greater than 100 µM in the assay with OVCAR-4 ovarian; 79.2 µM with OVCAR-8 ovarian. For the same molecule, the values for the TGI in the assay on TK-10 renal and in the assay on UACC-257 melanoma were greater than 100 µM and 69.7 µM, respectively.
In the case of `CN(/N=C/c1ccnc2ccccc12)c1c([N+](=O)[O-])cc([N+](=O)[O-])cc1[N+](=O)[O-]`, the TGI in the assay on 786-0 renal, with A549 NSCLC, in the assay on K-562 leukemia, in the assay with NCI-H226 lung, in the assay on OVCAR-4 ovarian and in the assay on OVCAR-8 ovarian was greater than 100 µM throughout. Further, the TGI in the assay on SNB-19 CNS, in the assay with TK-10 renal and in the assay with UACC-257 melanoma was greater than 100 µM in each case.
With `O=C(/C=C\c1cccc2ccccc12)c1ccc(Cl)cc1Cl`, the TGI in the assay with 786-0 renal was 33.1 µM; in the assay on A549 NSCLC it was greater than 100 µM; in the assay on K-562 leukemia, 38.6 µM; with NCI-H226 lung, greater than 100 µM; with OVCAR-4 ovarian, greater than 100 µM; in the assay on OVCAR-8 ovarian it was 37.3 µM. Further, the TGI in the assay on SNB-19 CNS is 72.9 µM; in the assay on TK-10 renal, greater than 100 µM; with UACC-257 melanoma, 75.3 µM.
For `Cc1cc(C)c(-c2noc(-c3ccc(Cl)cc3)c2C2=NCCCN2)c(C)c1`, the TGI is 26.5 µM in the assay on 786-0 renal; greater than 100 µM with A549 NSCLC; 37.7 µM in the assay with K-562 leukemia; 95.3 µM in the assay with NCI-H226 lung; greater than 100 µM in the assay on OVCAR-4 ovarian; greater than 100 µM in the assay on OVCAR-8 ovarian. The TGI in the assay with SNB-19 CNS was greater than 100 µM; with UACC-257 melanoma, 40.6 µM.
As to `COC(=O)C1=CC2C=CC(C1C(=O)OC)C1C(C(=O)OC)=C(C(=O)OC)C(C(=O)OC)=C(C(=O)OC)C21OC` (centres undefined), the TGI with 786-0 renal, in the assay on A549 NSCLC, in the assay on NCI-H226 lung, with OVCAR-4 ovarian, in the assay with OVCAR-8 ovarian and with TK-10 renal was greater than 100 µM in each case. The molecule further returned a TGI with UACC-257 melanoma greater than 100 µM.
Take `COc1cc(/C=N/N=C(\N)NO)c(Cl)cc1O`: the TGI in the assay with 786-0 renal, in the assay with A549 NSCLC, in the assay with K-562 leukemia, with NCI-H226 lung, with OVCAR-4 ovarian and in the assay with OVCAR-8 ovarian was greater than 100 µM throughout. The TGI in the assay on SNB-19 CNS and in the assay on UACC-257 melanoma was greater than 100 µM in each case.
